Source: PubChem BioAssay (NCI)
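Exposure lasted 48 hours, with cells grown in 96-well plates and compounds tested at five concentrations. GI50: concentration for 50% inhibition of growth. At the TGI there is no net growth.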

Assays:
Experiment in all cases: DTP human tumour cell line panel, 48 h
[1] = tested on: KM12 colon
[2] = tested on: SK-OV-3 ovarian
[3] = tested on: SR leukemia
[4] = tested on: RXF 393 renal
[5] = tested on: ACHN renal
[6] = tested on: OVCAR-4 ovarian
[7] = tested on: OVCAR-8 ovarian
[8] = tested on: MDA-MB-435
[9] = tested on: MDA-MB-231 breast
[10] = tested on: NCI/ADR-RES ovarian

Row | SMILES | TGI [1] | TGI [2] | TGI [3] | TGI [4] | TGI [5] | TGI [6] | TGI [7] | GI50 [8] | TGI [8] | GI50 [1] | GI50 [2] | GI50 [3] | GI50 [5] | GI50 [9] | TGI [9] | GI50 [6] | GI50 [10] | TGI [10] | GI50 [7] | GI50 [4]
1 | O=C1c2ccccc2C(=O)N1C/C=C/CO | > 100 µM | > 100 µM | > 100 µM | > 100 µM | > 100 µM | > 100 µM | > 100 µM | – | – | – | – | – | – | – | – | – | – | – | – | –
2 | O=C(COC(=O)c1cccc2c(=O)c3ccccc3[nH]c12)Nc1ccccc1 | 54.1 µM | > 100 µM | 54.3 µM | 97.9 µM | > 100 µM | > 100 µM | > 100 µM | – | – | – | – | – | – | – | – | – | – | – | – | –
3 | CCOC(=O)[C@@H](C)C[C@H](Cc1ccccc1)NC(=O)c1csc([C@@H](C[C@H](C(C)C)N(C)C(=O)[C@H](CC)NC(=O)[C@H]2CCCCN2C)OC(C)=O)n1 | > 16.7 µM | > 16.7 µM | > 16.7 µM | – | > 16.7 µM | > 16.7 µM | > 16.7 µM | < 0.00167 µM | 0.00169 µM | < 0.00167 µM | < 0.00167 µM | < 0.00167 µM | 0.00196 µM | 0.00323 µM | 0.308 µM | 0.00397 µM | 0.0675 µM | > 15.7 µM | 0.00434 µM | –
4 | C=C1C(=O)O[C@@H]2C1C[C@@H](O)C(=C)CC/C=C(\C)CCC[C@H](C)[C@H]2OC(C)=O (stereo not given in full) | 26 µM | 32.5 µM | – | 20.9 µM | 3.85 µM | 28 µM | 45.4 µM | 12.9 µM | 26.7 µM | 11.4 µM | 14.8 µM | – | 1.69 µM | 4.07 µM | 18.6 µM | 4.65 µM | 3.38 µM | 14.2 µM | 15.4 µM | 4.15 µM
5 | O=c1oc2ccc(-n3c(=O)c4ccccc4c4ccccc4c3=O)cc2c2ccccc12 | > 100 µM | > 100 µM | – | > 100 µM | > 100 µM | > 100 µM | > 100 µM | – | > 100 µM | – | – | – | – | – | > 100 µM | – | – | > 100 µM | – | –
6 | O=C(NC1C2CC3CC(C2)CC1C3)c1cc(/C=C/c2ccccc2)[nH]c(=S)n1 (stereo not given) | > 100 µM | > 100 µM | > 100 µM | > 100 µM | > 100 µM | > 100 µM | > 100 µM | – | – | – | – | – | – | – | – | – | – | – | – | –
7 | N#CCC(=O)N/N=C(\C(=O)Nc1ccc(Cl)c(Cl)c1)C1CN(c2ccccc2)N=C1N (stereo not given) | > 100 µM | > 100 µM | > 100 µM | > 100 µM | > 100 µM | > 100 µM | > 100 µM | – | – | – | – | – | – | – | – | – | – | – | – | –
8 | CSCCOC(=O)C(=[N+]=[N-])c1ccc([N+](=O)[O-])cc1 | > 100 µM | > 100 µM | > 100 µM | > 100 µM | > 100 µM | > 100 µM | > 100 µM | – | – | – | – | – | – | – | – | – | – | – | – | –
9 | Clc1cc2n[se]nc2cc1Cl | > 100 µM | > 100 µM | > 100 µM | > 100 µM | > 100 µM | > 100 µM | > 100 µM | – | – | – | – | – | – | – | – | – | – | – | – | –
10 | N#CC1=C(N)NC(=S)NC12Nc1ccccc1N2 | > 100 µM | > 100 µM | > 100 µM | > 100 µM | – | > 100 µM | > 100 µM | 19.6 µM | > 100 µM | 23.6 µM | 61 µM | 6.18 µM | – | > 100 µM | > 100 µM | > 100 µM | 46.8 µM | > 100 µM | 38.6 µM | > 100 µM
